Test results from patent publication US9540373B2, “Substituted spirocycles” (Boehringer Ingelheim International GmbH, priority 2014, dated 2017).

Tests used:
[1] = molecular target: recombinant human DPPI (Cathepsin C) (Homo sapiens (Human), UniProt P53634); assay: Inhibition of human DPPI (Cathepsin C); format: biochemical; settings: recombinant human DPPI, substrate Gly-Arg-AMC, pH 6.0; read-out: Inhibition of DPPI IC50
Method: Inhibition of Human DPPI (Cathepsin C)
The analysis of the data was performed by calculating the percentage of fluorescence in the presence of test compound in comparison to the fluorescence of the vehicle control after 20 subtracting the background fluorescence using the following formula: (RFU(sample)−RFU(background))*100/(RFU(control)−RFU(background))
Data from these calculations were used to generate IC50 values for inhibition of DPPI, respectively.

[2] = Determination of metabolic stability with human liver microsomes; format: in vitro ADME; settings: pH 7.6; pooled human liver microsomes, 1 mg/ml protein, 1 μM compound, 37° C., NADPH; read-out: In vitro stability in human liver microsome incubations t1/2
Method: Determination of Metabolic Stability with Human Liver Microsomes
The metabolic degradation of the test compound is assayed at 37° C. with pooled human liver microsomes. The final incubation volume of 100 μl per time point contains TRIS buffer pH 7.6 (0.1 M), magnesium chloride (5 mM), microsomal protein (1 mg/ml) and the test compound at a final concentration of 1 μM. Following a short preincubation period at 37° C., the reactions are initiated by addition of beta-nicotinamide adenine dinucleotide phosphate, reduced form (NADPH, 1 mM) and terminated by transferring an aliquot into acetonitrile after different time points. Additionally, the NADPH-independent degradation is monitored in incubations without NADPH, terminated at the last time point. The [%] remaining test compound after NADPH independent incubation is reflected by the parameter c (control) (metabolic stability). The quenched incubations are pelleted by centrifugation (10′000 g, 5 min.) An aliquot of the supernatant is assayed by LC-MS/MS for the amount of parent compound.
The half-life (t1/2 INVITRO) is determined by the slope of the semilogarithmic plot of the concentration-time profile. The intrinsic clearance (CL_INTRINSIC) is calculated by considering the amount of protein in the incubation: CL_INTRINSIC [μl/min/mg protein]=(ln 2/(half-life [min]*protein content [mg/ml]))*1′000.

[3] = tested on: neutrophil elastase activity in U937 cells; assay: Determination of neutrophil elastase activity in U937 cytosolic lysate preparation after incubation with test compound; format: cell-based; settings: Homo sapiens, U-937; U937 cells incubated 48 hours with compound, NE activity in lysate; read-out: Reduction of NE-activity in U937 cells IC50
Method: Determination of Neutrophil Elastase Activity in U937 Cytosolic Lysate Preparation after Incubation with Test Compound Materials:
24 well Nunclon cell culture plates (No. 142475) and 96 well plates (No. 267245) were from Nunc.
Dimethylsulfoxid (DMSO) was from Sigma (Prod. No. D8418). Nonidet-P40 (NP40) was from USBiological (Prod. No. N3500)
Substrate, specific for Neutrophil elastase, was from Bachem (MeOSuc-Ala-Ala-Pro-Val-AMC; Prod. No. I-1270).
Human neutrophil elastase was from Calbiochem (Prod. No. 324681)
Tris-buffer (100 mM Tris; 1M NaCl; pH 7.5)
Tris-buffer+HSA 0.1%; Human Serum Albumin from Calbiochem (Cat#. 126658)
Serine-protease buffer (20 mM Tris; 100 mM NaCl; pH 7.5)+0.1% HSA
Serine protease lysis buffer: 20 mM Tris-HCl; 100 mM NaCl pH 7.5; +0.2% Nonidet-P40;
PBS: phosphate buffered saline, without Ca and Mg, from Gibco
U937 from ECACC (Cat. No. 85011440) cultured in suspension at 37° C. and 5% CO2.
Cell density: 0.2-1 Mio. Cells/ml.
Medium: RPMI1640 GlutaMAX (No. 61870) with 10% FCS from Gibco
Cell Seeding and Treatment:
Compounds in 100% DMSO were diluted in Medium (−FCS) with 10% DMSO and further diluted according to the experiment planned.
20 μl of the compound solution was transferred in the respective wells of the 24 well plate and diluted with 2 ml cell suspension/well containing 1×10^5 cells/ml (final concentration of DMSO=0.1%). Compound dilution factor=100
Compounds (up to 7 concentrations) were tested in triplicates with 3 wells for the DMSO 0.1% control, incubated for 48 hours without medium change at 37° C., 5% CO2 and 95% relative humidity.
Cell Harvesting and Cell Lysate:
Transfer the cell suspension in 2 ml 96 well assay block. Separate cells from medium by centrifugation (500×g; 10 min; RT); discard the supernatant. Resuspend in 1 ml PBS; centrifugation (500×g; 10 min; RT); wash cells twice with PBS. Add 80 μl Serine protease lysis buffer (ice cold) to the cell pellet; resuspend the pellet and store on ice for 10 minutes. Remove debris by centrifugation at 1000×g for 10 min at 4° C. Transfer 80-100 μl lysate supernatant in 96 well plate and store immediately at −80° C.
Neutrophil Elastase Activity Assay:
Frozen lysates were thaw at 37° C. for 10 minutes and stored on ice. Protein content was determined with Bradford protein assay. Lysates were diluted to 0.2-0.5 mg/ml protein in serine protease buffer+HSA.
Standard: NE (100 μg/ml stock solution in Tris-buffer; stored at −80° C.) was diluted in Tris-buffer+HSA to 750 ng/ml, and further serially diluted 1:2 for the standard curve. Buffer, blank, standard and lysate samples were transferred into 384 well plate
Blank: 5 μl Tris-buffer+10 μl Serine protease buffer+5 μl Substrate
Standard: 5 μl Tris-buffer+10 μl NE (diff. conc.)+5 μl Substrate
Lysate: 5 μl Tris-buffer+10 μl Lysat+5 μl Substrate
The increase in fluorescence (Ex360 nm/Em 460 nm) is determined after 30 minutes with a Molecular Device Spectramax M5 Fluorescence Reader. The result is interpolated to ng/mg lysate protein using excel formula functions. Percent inhibition in the compound-treated lysate samples is calculated relative to the DMSO-treated control-sample (100−(compound-sample*100)/control-sample)
A test compound will give values between 0% and 100% inhibition of neutrophil elastase. IC50 is calculated using Graphpad Prism; nonlinear fitting (log(inhibitor) vs. response—Variable slope). The IC50 value is interpolated as the concentration of test compound which leads to a neutrophil elastase activity reduction of 50% (relative to the DMSO-treated control).

[4] = tested on: neutrophil elastase activity in BALF cell lysate; assay: Target engagement mouse model: neutrophil elastase activity in BALF cell lysate after LPS challenge; format: in vivo; settings: female Crl:NMRI mice, 0.5 mg/kg bid for 7 days, oral, LPS inhalation challenge
Method: Target Engagement Mouse Model Compound Treatment:
To monitor the effect of the test compounds on neutrophil elastase activity in peripheral neutrophils, female Crl:NMRI mice were treated as follows:
Group 1 (6 animals): 0.5 mg/kg test compound in 0.5% Natrosol (pH 2-3)
Group 2 (6 animals): 0.5% Natrosol (pH 2-3)
Group 3 (2 animals): 0.5% Natrosol (pH 2-3)
Test compounds or Natrosol solution were applied on Monday to Friday at 7:00 am and 4:00 pm each day of the first week of the study and on Monday and Tuesday (7:00 am and 4:00 pm) the second week. Test compounds or Natrosol were applied orally.
LPS Challenge and Bronchioalveolar Lavage Preparation: […]
4 hours after the LPS challenge a bronchioalveolar lavage using 2×1 ml Hank's salt solution per animal was prepared from all animals and the cell numbers in the lavage fluid determined using a Sysmex XT-1800i. […]
NE activity in the BALF (bronchioalveolar lavage fluid) cell lysate was measured using the fluorescent NE substrate MeOSuc-Ala-Ala-Pro-Val-AMC (Bachem): 10 μl cell lysate were mixed with 5 μl assay buffer (20 mM Tris pH 7.5, 100 mM NaCl, 0.1% human serum albumin) and 5 μl substrate (1 mM in assay buffer) in a 384 well plate (Optiplate 384f, PerkinElmer). The reaction mixture was incubated for 60 min at room temperature and the fluorescence measured (360 nm excitation, 460 nm emission). […]

Sequence of recombinant human DPPI (Cathepsin C) (P53634 231-394): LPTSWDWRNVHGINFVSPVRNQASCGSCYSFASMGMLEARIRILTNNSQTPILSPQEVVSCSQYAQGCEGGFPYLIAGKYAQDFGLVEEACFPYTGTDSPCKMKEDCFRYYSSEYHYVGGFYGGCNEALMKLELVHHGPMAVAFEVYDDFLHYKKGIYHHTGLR
Sequence of recombinant human DPPI (Cathepsin C) (P53634 25-134): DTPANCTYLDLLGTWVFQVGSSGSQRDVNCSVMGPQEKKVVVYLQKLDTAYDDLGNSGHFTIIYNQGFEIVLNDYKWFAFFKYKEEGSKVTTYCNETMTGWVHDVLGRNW
Sequence of recombinant human DPPI (Cathepsin C) (P53634 395-463): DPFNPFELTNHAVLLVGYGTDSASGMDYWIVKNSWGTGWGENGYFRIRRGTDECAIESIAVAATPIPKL

With `N#C[C@H](Cc1ccc(-c2ccc3c(n2)C2(CCN(C4COC4)CC2)OC3)cc1F)NC(=O)[C@H]1N[C@@H]2CC[C@H]1C2` [Example 25, (1S,2S,4R)—N-[(1S)-1-cyano-2-[2-fluoro-4-[1′-(oxetan-3-yl)spiro[5H-furo[3,4-b]pyridine-7,4′-piperidine]-2-yl]phenyl]ethyl]-3-azabicyclo[2.2.1]heptane-2-carboxamide] the IC50 [1] was 1.8 nM, the half-life at 1 μM [2] was > 2.17 h and the IC50 [3] was 1.6 nM. The “Inhibition of neutrophil elastase activity in BALF lysate after the pretreatment with Cathepsin C inhibitor” value [4] was 94%.
In the case of `N#C[C@H](Cc1ccc(-c2ccc3c(c2)C2(CCN(C4COC4)CC2)OC3)cc1F)NC(=O)[C@H]1N[C@@H]2CC[C@H]1C2` [Example 1, (1S,2S,4R)—N-[(1S)-1-cyano-2-[2-fluoro-4-[1′-(oxetan-3-yl)spiro[1H-isobenzofuran-3,4′-piperidine]-5-yl]phenyl]ethyl]-3-azabicyclo[2.2.1]heptane-2-carboxamide], the IC50 [1] is reported as 1.1 nM, the half-life at 1 μM [2] is reported as > 2.17 h and the IC50 [3] is reported as 1 nM. For the same compound, the “Inhibition of neutrophil elastase activity in BALF lysate after the pretreatment with Cathepsin C inhibitor” value [4] was 96%.
In the case of `N#C[C@H](Cc1ccc(-c2ccc3c(n2)C2(CCN(C4COC4)CC2)OC3=O)cc1F)NC(=O)[C@H]1N[C@@H]2CC[C@H]1C2` [Example 24], the IC50 [1] is reported as 2.7 nM, the half-life at 1 μM [2] is reported as > 2.17 h and the IC50 [3] is reported as 6 nM.
For `N#C[C@H](Cc1ccc(-c2ccc3c(c2)C2(CCNC2)OC3=O)cc1F)NC(=O)[C@H]1N[C@@H]2CC[C@H]1C2` (some centres unmarked) [Example 9], the IC50 [1] was 0.5 nM, the half-life at 1 μM [2] was > 2.17 h and the IC50 [3] was 21.5 nM.
